Drawing on patent US20230117592A1 (SRI International, priority 2019, published 2023), this text covers IC50 for 23 compounds.

Several values for one entry are separate records, joined by “and”; a condition that tells them apart may be missing. Equal entries are not always repeated. Where two headings read alike, the source gives them in different places.

One assay concerns the target T1, 5-LOX (Homo sapiens, UniProt P09917).
T1 sequence (P09917 1-674): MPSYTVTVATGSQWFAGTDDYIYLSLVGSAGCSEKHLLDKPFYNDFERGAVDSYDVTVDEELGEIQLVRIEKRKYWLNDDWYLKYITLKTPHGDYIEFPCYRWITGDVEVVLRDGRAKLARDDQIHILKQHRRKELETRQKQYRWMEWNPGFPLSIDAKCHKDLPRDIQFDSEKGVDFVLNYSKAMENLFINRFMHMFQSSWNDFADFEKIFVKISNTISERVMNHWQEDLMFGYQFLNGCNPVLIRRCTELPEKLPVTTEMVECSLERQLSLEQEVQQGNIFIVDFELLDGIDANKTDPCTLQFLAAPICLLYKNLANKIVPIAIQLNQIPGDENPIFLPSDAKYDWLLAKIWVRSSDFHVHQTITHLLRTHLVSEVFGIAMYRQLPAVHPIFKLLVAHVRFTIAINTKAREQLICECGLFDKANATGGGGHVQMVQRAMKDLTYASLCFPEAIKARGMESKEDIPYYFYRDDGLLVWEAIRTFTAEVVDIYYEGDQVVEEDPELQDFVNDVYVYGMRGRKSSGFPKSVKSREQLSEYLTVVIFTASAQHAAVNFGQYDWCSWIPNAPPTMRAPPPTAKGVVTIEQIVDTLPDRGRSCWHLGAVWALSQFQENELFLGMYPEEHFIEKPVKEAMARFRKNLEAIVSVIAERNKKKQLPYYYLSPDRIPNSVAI
The assay can be described thus: 5-LOX fluorescent assay (in vitro lipoxygenase inhibition). It is filed as biochemical. Particulars: recombinant 5-LOX cell lysate, 20 μM AA, DHR123 fluorescence; several values in a cell = repeat determinations; read-out: IC50 (μM) values for in vitro lipoxygenase inhibition, 5-LOX. The protocol: 5-LOX FI assay Fluorescent Assay
The enzyme assay (100 μL) contained 50 mM Tris, pH 7.5, 0.1 mM EDTA, 0.3 mM CaCl2, 20 μM AA, 100 μM ATP, 1 μM DHR123, and recombinant 5-LOX cell lysate (0.5 μL/100 μL). Inhibitors (dissolved in DMSO) were plated at 1 μL into 96-well assay microplates followed by a 40 μL addition of a solution containing 5-LOX enzyme. Enzyme was pre-incubated with compounds for 15 mins. The assay was initiated by the addition of a 40 μL substrate solution containing AA and ATP, and 20 μL addition of a solution containing DHR123. […] Percent inhibition was calculated for each compound dose for IC50 curve fitting using 4 Parameter Logistic Model or Sigmoidal Dose-Response Model.

The next assay concerns the target T2, 12-LOX (Homo sapiens, UniProt P18054).
T2 sequence (P18054 1-663): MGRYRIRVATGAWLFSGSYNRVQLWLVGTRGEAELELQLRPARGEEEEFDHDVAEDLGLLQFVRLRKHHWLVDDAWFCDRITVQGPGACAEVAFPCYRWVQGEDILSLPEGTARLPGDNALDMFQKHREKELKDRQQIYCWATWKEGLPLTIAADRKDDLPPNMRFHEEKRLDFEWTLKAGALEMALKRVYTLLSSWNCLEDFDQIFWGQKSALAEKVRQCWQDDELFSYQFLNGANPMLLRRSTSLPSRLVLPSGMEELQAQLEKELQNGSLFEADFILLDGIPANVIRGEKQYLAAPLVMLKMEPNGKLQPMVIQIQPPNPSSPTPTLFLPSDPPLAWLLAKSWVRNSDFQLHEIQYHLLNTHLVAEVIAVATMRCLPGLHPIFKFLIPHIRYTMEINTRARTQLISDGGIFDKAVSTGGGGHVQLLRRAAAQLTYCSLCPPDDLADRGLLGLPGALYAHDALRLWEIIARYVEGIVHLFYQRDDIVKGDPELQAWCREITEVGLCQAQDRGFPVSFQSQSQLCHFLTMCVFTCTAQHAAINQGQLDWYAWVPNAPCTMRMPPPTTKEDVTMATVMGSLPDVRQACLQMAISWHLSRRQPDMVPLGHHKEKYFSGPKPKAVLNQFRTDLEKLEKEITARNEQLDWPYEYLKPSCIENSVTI
Put plainly: 12-LOX fluorescent assay (in vitro lipoxygenase inhibition). It is filed as biochemical. The protocol:
12-LOX/15-LOX Fluorescent Assay
The enzyme assay (100 ul) contained 50 mM Tris, pH 7.5, 0.05% Tween-20, 20 μM AA/LA, 1 μM DHR123, and 100 nM recombinant 12-LOX enzyme/50 nM recombinant 15-LOX enzyme. Inhibitors (dissolved in DMSO) were plated at 1 μL into 96-well assay microplates followed by a 40 μL addition of a solution containing 12-LOX/15-LOX enzyme. Enzyme was pre-incubated with compounds for 15 mins. The assay was initiated by the addition of a 40 μL substrate solution containing AA/LA, and 20μL addition of a solution containing DHR123. […] Percent inhibition was calculated for each compound dose for IC50 curve fitting using 4 Parameter Logistic Model or Sigmoidal Dose-Response Model.

Setting [1] is: 100 nM recombinant 12-LOX, 20 μM AA, DHR123 fluorescence, several values in a cell = repeat determinations, read-out: IC50 (μM) values for in vitro lipoxygenase inhibition, 12-LOX.

With `Fc1ccc(CNc2ccc(NCCn3cncn3)c(-c3cccc4c3NCC4)c2)cc1` [SS20308-0211-01, N^1-(2-(1H-1,2,4-triazol-1-yl)ethyl)-N^4-(4-fluorobenzyl)-2-(indolin-7-yl)benzene-1,4-diamine], the 50% inhibitory concentration (IC50) – broadly, the concentration at which inhibition is half-maximal – at 5-LOX was 0.08 µM and 0.07 µM; at 12-LOX (setting [1]), 0.04 µM and 0.03 µM.
For the compound `c1ccc(CNc2cnc(NCCn3cncn3)c(-c3ccccc3)c2)cc1` [SS20308-0212-01, N^2-(2-(1H-1,2,4-triazol-1-yl)ethyl)-N^5-benzyl-3-phenylpyridine-2,5-diamine], the IC50 on 5-LOX turned out to be 2.93 µM; at 12-LOX (setting [1]), 1.61 µM.
Take `c1ccc(CNc2cc(-c3ccccc3)c(NCCn3cncn3)cn2)cc1` [SS20308-0213-01, N^5-(2-(1H-1,2,4-triazol-1-yl)ethyl)-N^2-benzyl-4-phenylpyridine-2,5-diamine]: the figures for the IC50 at 5-LOX and at 12-LOX (setting [1]) were 0.61 µM and 0.08 µM, respectively.
As to `c1ccc(CNc2ccc(NCCn3cncn3)c(-c3ccccc3)n2)cc1` [SS20308-0214-01, N^5-(2-(1H-1,2,4-triazol-1-yl)ethyl)-N^2-benzyl-6-phenylpyridine-2,5-diamine], the half-maximal inhibitory concentration (IC50) at 5-LOX amounted to 0.16 µM; at 12-LOX (setting [1]), 0.05 µM.
As to `c1ccc(CNc2ccc(NCCn3cncn3)c(-c3ccncc3)c2)cc1` [SS20308-0215-01, N^1-(2-(1H-1,2,4-triazol-1-yl)ethyl)-N^4-benzyl-2-(pyridin-4-yl)benzene-1,4-diamine], the 50% inhibitory concentration (IC50) at 5-LOX was 0.07 µM and 0.09 µM; on 12-LOX (setting [1]) it was 0.04 µM and 0.03 µM.
Take `c1ccc(CNc2ccc(NCCn3cncn3)c(-c3cccnc3)c2)cc1` [SS20308-0216-01, N^1-(2-(1H-1,2,4-triazol-1-yl)ethyl)-N^4-benzyl-2-(pyridin-3-yl)benzene-1,4-diamine]: the IC50 on 5-LOX was 0.04 µM; at 12-LOX (setting [1]) it was 0.03 µM.
In the case of `c1ccc(-c2cc(NCC3CCCCC3)ccc2NCCn2cncn2)cc1` [SS20308-0217-01, N^2-(2-(1H-1,2,4-triazol-1-yl)ethyl)-N^5-(cyclohexylmethyl)-[1,1′-biphenyl]-2,5-diamine], the IC50 at 5-LOX is 0.02 µM and 0.06 µM; on 12-LOX (setting [1]), 0.02 µM and 0.04 µM.
Regarding `c1ccc(CNc2ccc(NCCn3cncn3)c(-c3cccs3)n2)cc1` [SS20308-0218-01, N^5-(2-(1H-1,2,4-triazol-1-yl)ethyl)-N^2-benzyl-6-(thiophen-2-yl)pyridine-2,5-diamine], the IC50 at 5-LOX was found to be 0.02 µM; at 12-LOX (setting [1]), 0.01 µM.
For `c1ccc(CNc2cnc(-c3ccccc3)c(NCCn3cncn3)c2)cc1` [SS20308-0219-01, N^3-(2-(1H-1,2,4-triazol-1-yl)ethyl)-N^5-benzyl-2-phenylpyridine-3,5-diamine] the same measures were 4.78 µM and 2.68 µM.
In the case of `c1ccc(CNc2ccc(-c3ccccc3)c(NCCn3cncn3)n2)cc1` [SS20308-0221-01, N^2-(2-(1H-1,2,4-triazol-1-yl)ethyl)-N^6-benzyl-3-phenylpyridine-2,6-diamine], the IC50 at 5-LOX amounted to 0.66 µM; at 12-LOX (setting [1]), 0.11 µM.
In the same order, the values of `c1ccc(Nc2cccc(NCCn3cncn3)c2)cc1` [SS20308-0223-01, N^1-(2-(1H-1,2,4-triazol-1-yl)ethyl)-N^3-phenylbenzene-1,3-diamine] are 0.49 µM and 0.11 µM.
In the case of `Fc1ccc(CNc2ccc(NCCn3cncn3)c(-c3cccc4cc[nH]c34)c2)cc1` [SS20308-0225-01, N^1-(2-(1H-1,2,4-triazol-1-yl)ethyl)-N^4-(4-fluorobenzyl)-2-(1H-indol-7-yl)benzene-1,4-diamine], the values for the IC50 on 5-LOX and at 12-LOX (setting [1]) were 0.05 µM and 0.03 µM, respectively.
In the same order, the values of `FC(F)(F)C(Nc1ccc(NCCn2cncn2)c(-c2ccccc2)c1)c1ccccc1` (stereo not shown) [SS20308-0226-01, N^2-(2-(1H-1,2,4-triazol-1-yl)ethyl)-N^5-(2,2,2-trifluoro-1-phenylethyl)-[1,1′-biphenyl]-2,5-diamine] are 0.14 µM and 0.06 µM.
For `Fc1ccc(CNc2cc(F)c(NCCn3cncn3)c(-c3ccccc3)c2)cc1` [SS20308-0227-01, N^2-(2-(1H-1,2,4-triazol-1-yl)ethyl)-3-fluoro-N^5-(4-fluorobenzyl)-[1,1′-biphenyl]-2,5-diamine] the same measures were 0.39 µM and 0.03 µM.
As for `Fc1ccc(CNc2ccc(NCCn3cncn3)c(-c3ccccc3)c2F)cc1` [SS20308-0228-01, N^2-(2-(1H-1,2,4-triazol-1-yl)ethyl)-6-fluoro-N^5-(4-fluorobenzyl)-[1,1′-biphenyl]-2,5-diamine], the results for the half-maximal inhibitory concentration (IC50) on 5-LOX and at 12-LOX (setting [1]) were 0.16 µM and 0.02 µM, respectively.
On to `Fc1ccc(CNc2cc(-c3ccccc3)c(NCCn3cncn3)cc2F)cc1` [SS20308-0229-01, N2-(2-(1H-1,2,4-triazol-1-yl)ethyl)-4-fluoro-N5-(4-fluorobenzyl)-[1,1′-biphenyl]-2,5-diamine], for which the IC50 at 5-LOX is 0.08 µM and 0.26 µM; at 12-LOX (setting [1]), 0.02 µM.
With `Fc1ccc(C(Nc2ccc(NCCn3cncn3)cc2)C(F)(F)F)cc1` (stereo not shown) [SS20308-0232-01, N^1-(2-(1H-1,2,4-triazol-1-yl)ethyl)-N^4-(2,2,2-trifluoro-1-(4-fluorophenyl)ethyl)benzene-1,4-diamine], the IC50 on 5-LOX was 0.69 µM; on 12-LOX (setting [1]), 0.14 µM.
Turning to `Fc1ccc(CNc2ccc(NCCCn3cncn3)c(F)c2)cc1` [SS20308-0236-01, N^1-(3-(1H-1,2,4-triazol-1-yl)propyl)-2-fluoro-N^4-(4-fluorobenzyl)benzene-1,4-diamine], the IC50 at 5-LOX was 0.1 µM and 0.18 µM; on 12-LOX (setting [1]), 0.04 µM and 0.03 µM.
With `Cc1ccc(NCc2ccc(F)cc2)cc1NCCCn1cncn1` [SS20308-0237-01, N^3-(3-(1H-1,2,4-triazol-1-yl)propyl)-N^1-(4-fluorobenzyl)-4-methylbenzene-1,3-diamine], the IC50 is 0.28 µM on 5-LOX and 0.18 µM on 12-LOX (setting [1]).
For `c1cc(NCCCn2cncn2)cc(NC2CCCCC2)c1` [SS20308-0238-01, N^1-(3-(1H-1,2,4-triazol-1-yl)propyl)-N^3-cyclohexylbenzene-1,3-diamine] the same measures were 0.4 µM and 0.17 µM.
With `c1ncn(CCCNc2ccc(NC3CCCCC3)cc2)n1` [SS20308-0239-01, N^1-(3-(1H-1,2,4-triazol-1-yl)propyl)-N^4-cyclohexylbenzene-1,4-diamine], the IC50 is 0.04 µM and 0.07 µM at 5-LOX; 0.03 µM at 12-LOX.
For the compound `c1ncn(CCCNc2ccc(NCC3CCCCC3)cc2)n1` [SS20308-0240-01, N^1-(3-(1H-1,2,4-triazol-1-yl)propyl)-N^4-(cyclohexylmethyl)benzene-1,4-diamine], the half-maximal inhibitory concentration (IC50) is 0.02 µM and 0.03 µM at 5-LOX; 0.01 µM at 12-LOX (setting [1]).
In the case of `c1cc(NCC2(Cn3cncn3)COC2)cc(NC2CCCCC2)c1` [SS20308-0241-01, N^1-((3-((1H-1,2,4-triazol-1-yl)methyl)oxetan-3-yl)methyl)-N^3-cyclohexylbenzene-1,3-diamine], the values for the IC50 at 5-LOX and at 12-LOX (setting [1]) were 1.09 µM and 0.36 µM, respectively.
